The values below are quoted from earlier work in patent US6852845B1, “Method of identifying toxic agents using NSAID-induced differential gene expression in liver” (Curagen Corporation, priority 1999, dated 2005).

The subject of data set [1] is liver. To be noted: risk class assigned to each NSAID (low, very low, overdose risk).
Data set [2] deals with liver. The conditions noted are these: injury type classes of Table 5: hepatocellular damage, cholestasis, elevated transaminase level.

Structures are written as SMILES.

On to `CC(=O)Oc1ccccc1C(=O)O` [Acetylsalicylic Acid], for which the “Hepatotoxicity Risk of NSAIDs: Risk” value with liver [1] is listed as “Overdose Risk”.

For `CC(C(=O)O)c1ccc2oc(-c3ccc(Cl)cc3)nc2c1` (stereo not shown) [Benoxaprofen], the “type of hepatoxicity injury induced by the NSAID” value (“type” below) in the data set with liver [2] is “cholestatis-inducing”. Also, the “Hepatotoxicity Risk of NSAIDs: Risk” value in the data set on liver [1] is recorded as “Low Risk”.

As to `Nc1c(CC(=O)O)cccc1C(=O)c1ccc(Br)cc1` [Bromfenac], the “Hepatotoxicity Risk of NSAIDs: Risk” value in the data set with liver [1] is “Low Risk”.

For the compound `O=C(O)Cc1ccccc1Nc1c(Cl)cccc1Cl` [Diclofenac], the “Hepatotoxicity Risk of NSAIDs: Risk” value in the data set on liver [1] is recorded as “Low Risk”.

Regarding `CCc1cccc2c3c([nH]c12)C(CC)(CC(=O)O)OCC3` (stereo not shown) [Etodolac], the “Hepatotoxicity Risk of NSAIDs: Risk” value with liver [1] was “Very Low Risk”.

For `CC(C(=O)O)c1cccc(Oc2ccccc2)c1` (stereo not shown) [Fenoprofen], the “Hepatotoxicity Risk of NSAIDs: Risk” value in the data set with liver [1] is recorded as “Very Low Risk”.

On to `CC(C(=O)O)c1ccc(-c2ccccc2)c(F)c1` (stereo not shown) [Flurbiprofen], for which the “type” value in the data set on liver [2] was “hepatocellular damage”. Further, the “Hepatotoxicity Risk of NSAIDs: Risk” value in the data set with liver [1] is “Very Low Risk”.

`COc1ccc2c(c1)c(CC(=O)O)c(C)n2C(=O)c1ccc(Cl)cc1` [Indomethacin]: the “Hepatotoxicity Risk of NSAIDs: Risk” value in the data set on liver [1] is “Very Low Risk”.

For `CC(C(=O)O)c1cccc(C(=O)c2ccccc2)c1` (stereo not shown) [Ketoprofen], the “Hepatotoxicity Risk of NSAIDs: Risk” value in the data set with liver [1] was “Very Low Risk”.

`Cc1ccc(Cl)c(Nc2ccccc2C(=O)O)c1Cl` [Meclofenamate]: in the data set on liver [1], the “Hepatotoxicity Risk of NSAIDs: Risk” value is “Very Low Risk”.

As to `Cc1cccc(Nc2ccccc2C(=O)O)c1C` [Mefenamic Acid], the “type” value with liver [2] was “elevated transaminase level”. Also, in the data set with liver [1], the “Hepatotoxicity Risk of NSAIDs: Risk” value is listed as “Very Low Risk”.

With `COc1ccc2cc(CCC(C)=O)ccc2c1` [Nabumetone], the “type” value in the data set on liver [2] is given as “cholestatis-inducing”. Moreover, the “Hepatotoxicity Risk of NSAIDs: Risk” value with liver [1] is recorded as “Very Low Risk”.

`O=C(O)CCc1nc(-c2ccccc2)c(-c2ccccc2)o1` [Oxaprozin]: the “Hepatotoxicity Risk of NSAIDs: Risk” value in the data set with liver [1] is given as “Very Low Risk”.

As to `CCOc1ccc(NC(C)=O)cc1` [Phenacetin], in the data set on liver [1], the “Hepatotoxicity Risk of NSAIDs: Risk” value is “Overdose Risk”.

For `CCCCC1C(=O)N(c2ccccc2)N(c2ccccc2)C1=O` [Phenylbutazone], the “Hepatotoxicity Risk of NSAIDs: Risk” value with liver [1] is “Low Risk”.

On to `CN1C(C(=O)Nc2ccccn2)=C(O)c2ccccc2S1(=O)=O` [Piroxicam], for which, in the data set with liver [1], the “Hepatotoxicity Risk of NSAIDs: Risk” value is recorded as “Very Low Risk”.

For the compound `CC1=C(CC(=O)O)c2cc(F)ccc2/C1=C\c1ccc([S+](C)[O-])cc1` (stereo not shown) [Sulindac], the “type” value in the data set on liver [2] is listed as “cholestatis-inducing”. Besides, the “Hepatotoxicity Risk of NSAIDs: Risk” value with liver [1] is “Low Risk”.

As to `CC(C(=O)O)c1ccc(C(=O)c2cccs2)cc1` (stereo not shown) [Suprofen], the “Hepatotoxicity Risk of NSAIDs: Risk” value in the data set on liver [1] is “Very Low Risk”.

As to `CN1C(C(=O)Nc2ccccn2)=C(O)c2sccc2S1(=O)=O` [Tenoxicam], the “type” value with liver [2] is “elevated transaminase level”. In the data set on liver [1], the “Hepatotoxicity Risk of NSAIDs: Risk” value is recorded as “Very Low Risk”.

As for `Cc1ccc(C(=O)c2ccc(CC(=O)O)n2C)cc1` [Tolmentin], the “Hepatotoxicity Risk of NSAIDs: Risk” value with liver [1] is “Very Low Risk”.

As to `Cc1cc(CC(=O)O)n(C)c1C(=O)c1ccc(Cl)cc1` [Zomepirac], in the data set with liver [2], the “type” value is “elevated transaminase level”. Also, the “Hepatotoxicity Risk of NSAIDs: Risk” value in the data set with liver [1] was “Very Low Risk”.
